In US10421755B2, “Salts of aza-bicyclic di-aryl ethers and methods to make them or their precursors” (Novartis AG, priority 2011, dated 2019):

Assays:
human α7-nAChR = molecular target: T1, human α7-nAChR (Homo sapiens, UniProt P36544); assay: functional assay (FLIPR, Fluo-4 calcium) using GH3 cells that recombinantly expressed human α7-nAChR; assay type: cell-based
T1 construct: expressed in transfected cells; host or cells: GH3 cells (rat pituitary line)
Procedure: Assay: To assess α7-nAChR activity, a functional assay was employed using GH3 cells that recombinantly expressed human α7-nAChR. 40000 cells per well were seeded 48 h prior to the experiment on black 96-well plates (Costar) and incubated at 37° C. in a humidified atmosphere (5% CO2/95% air). On the day of the experiment, medium was removed by flicking the plates and replaced with 0.1 ml growth medium containing 0.002 mM Fluo-4, (Molecular Probes) in the presence of 2.5 mM probenecid (Sigma). The cells were incubated at 37° C. in a humidified atmosphere (5% CO2/95% air) for 1 h. Plates were flicked to remove excess of Fluo-4, washed twice with Hepes-buffered salt solution (HBSS, in mM: NaCl 130, KCl 5.4, CaCl2 2, MgSO4 0.8, NaH2PO4 0.9, glucose 25, Hepes 20, pH 7.4; HBS) and refilled with 0.1 ml of HBS containing antagonist when appropriate. The incubation in the presence of the antagonist lasted 3-5 minutes. Plates were placed in the cell plate stage of a FLIPR device (fluorimetric imaging plate reader, Molecular Devices, Sunnyvale, Calif., USA). After recording of the baseline (laser: excitation 488 nm at 1 W, CCD camera opening of 0.4 seconds) the agonists (0.05 ml) were added to the cell plate using the FLIPR 96-tip pipettor while simultaneously recording the fluorescence. […]

[1] = molecular target: T2, human neuronal nAChR α4β2 (Homo sapiens, UniProt P17787+P43681); assay: similar functional assay using a human epithelial cell line stably expressing the human α4β2 subtype; assay type: cell-based
T2 construct: expressed in transfected cells
T2 sequence (P43681 29-627 limits assumed): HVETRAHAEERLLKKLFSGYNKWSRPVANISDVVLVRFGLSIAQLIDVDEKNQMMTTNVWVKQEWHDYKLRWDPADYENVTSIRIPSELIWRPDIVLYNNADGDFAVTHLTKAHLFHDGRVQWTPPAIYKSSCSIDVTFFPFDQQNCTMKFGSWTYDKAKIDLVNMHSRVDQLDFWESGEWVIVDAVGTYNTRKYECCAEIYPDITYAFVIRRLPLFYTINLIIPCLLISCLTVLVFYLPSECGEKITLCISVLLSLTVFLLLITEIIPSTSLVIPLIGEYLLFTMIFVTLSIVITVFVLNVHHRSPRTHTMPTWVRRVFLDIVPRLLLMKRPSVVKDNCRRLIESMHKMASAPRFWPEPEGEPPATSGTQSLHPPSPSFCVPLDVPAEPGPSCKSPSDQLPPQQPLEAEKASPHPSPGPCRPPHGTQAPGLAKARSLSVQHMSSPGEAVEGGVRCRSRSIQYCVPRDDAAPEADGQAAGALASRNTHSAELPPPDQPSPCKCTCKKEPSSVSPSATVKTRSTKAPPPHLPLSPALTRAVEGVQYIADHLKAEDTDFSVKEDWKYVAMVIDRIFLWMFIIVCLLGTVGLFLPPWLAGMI
T2 sequence (P17787 26-502): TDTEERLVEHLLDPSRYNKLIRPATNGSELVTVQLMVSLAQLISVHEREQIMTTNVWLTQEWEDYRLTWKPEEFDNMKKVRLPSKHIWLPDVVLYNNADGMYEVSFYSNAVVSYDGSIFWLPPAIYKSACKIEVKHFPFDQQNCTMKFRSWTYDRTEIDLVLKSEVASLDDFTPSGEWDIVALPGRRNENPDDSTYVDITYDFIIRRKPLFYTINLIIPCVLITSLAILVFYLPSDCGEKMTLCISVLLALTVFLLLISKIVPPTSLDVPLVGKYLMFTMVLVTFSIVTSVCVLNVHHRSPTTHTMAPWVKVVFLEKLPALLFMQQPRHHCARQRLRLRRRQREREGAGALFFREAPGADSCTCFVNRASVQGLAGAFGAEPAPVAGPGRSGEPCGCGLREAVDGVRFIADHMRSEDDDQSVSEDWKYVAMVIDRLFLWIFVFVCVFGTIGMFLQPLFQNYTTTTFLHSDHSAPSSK
Procedure: To assess the activity of the compound of the invention on the human neuronal nAChR α4β2, a similar functional assay is carried out using a human epithelial cell line stably expressing the human α4β2 subtype (Michelmore et al., Naunyn-Schmiedeberg's Arch. Pharmacol. (2002) 366, 235).

[2] = Oral bioavailability and brain penetration in mice; assay type: in vivo
Procedure: Assay: Compounds were orally (30 μmol/kg) administered. Male mice (30-35 g, OF1/ICstrain) were sacrificed at indicated time points after oral administration. Trunk-blood was collected in EDTA-containing tubes and the brain was removed and immediately frozen on dry ice. To 100 μl plasma 10 μl internal standard (1.0 μmol of a compound with solubility and ionization properties similar to test compounds) was added and extracted three times with 500 μl dichloromethane. The combined extracts were then dried under a stream of nitrogen and re-dissolved in 100 μl acetonitrile/water (70% acetonitrile). Brains were weighed and homogenized in water (1:5 w/v). Two 100 μl aliquots of each homogenate+10 μl of internal standard (same standard as used for the plasma samples) were extracted three times with 500 μl dichloromethane and further processed as the plasma samples. Samples were separated on Beckmann high-performance liquid chromatography equipment system with an autosampler (Gilson 233XL). A 10 min linear gradient (10-70%) of acetonitrile containing 0.5% (v/v) formic acid was used to elute the compounds from Nucleosil CC-125/2 C18 reversed phase (Machery&Nagel) column.
The limit of detection (LOD), defined as the lowest concentration of the extracted standard sample with a signal to noise ratio of ˜3.

[3] = Pharmacokinetics in rats after oral administration; assay type: in vivo, Wistar rats; conditions: male, Wistar, rat, in vivo, po, 10 mg/kg; for Tmax: Tmax (h)
Procedure: If a salt forming agent is used (e.g. fumarate), a corresponding higher amount of the salt will be used to achieve the intended dosing.
Both compounds were dissolved in Klucel™ (0.5% in water) and were orally administered by gavage (5 ml/kg) to conscious rats (n=8, cross-over design).
K3-EDTA blood (˜0.2 ml) was collected by puncture of a sublingual vein under light isoflurane anesthesia at the following time points: 0.25, 0.5, 1, 2, 3, 4, 6, 8, 24 h post dose. Immediately after sampling, blood samples were put on ice and were processed to plasma by centrifugation at 4° C. within 15 min after sampling (1000 g, 10 min, 4° C.) to obtain ˜100 μl plasma/sample. All plasma samples were stored at −80° C. until analysis. Since the PK study was performed in a cross-over design, a recovery period of approximately 2 weeks took place before the next treatment/blood sampling was performed.
The determination of compounds in plasma was done by LC-MS/MS using electrospray ionization.

[4] = Hygroscopicity (moisture gain at relative humidity); assay type: physicochemical; design: Hygroscopy @ 85% RH: unit not given here
[5] = Decomposition temperature; assay type: physicochemical; design: unit not given here; conditions: comparison table, Example 7
[6] = Known multiple solid forms; assay type: physicochemical; conditions: comparison table, Example 7

T1 sequence (P36544 23-502): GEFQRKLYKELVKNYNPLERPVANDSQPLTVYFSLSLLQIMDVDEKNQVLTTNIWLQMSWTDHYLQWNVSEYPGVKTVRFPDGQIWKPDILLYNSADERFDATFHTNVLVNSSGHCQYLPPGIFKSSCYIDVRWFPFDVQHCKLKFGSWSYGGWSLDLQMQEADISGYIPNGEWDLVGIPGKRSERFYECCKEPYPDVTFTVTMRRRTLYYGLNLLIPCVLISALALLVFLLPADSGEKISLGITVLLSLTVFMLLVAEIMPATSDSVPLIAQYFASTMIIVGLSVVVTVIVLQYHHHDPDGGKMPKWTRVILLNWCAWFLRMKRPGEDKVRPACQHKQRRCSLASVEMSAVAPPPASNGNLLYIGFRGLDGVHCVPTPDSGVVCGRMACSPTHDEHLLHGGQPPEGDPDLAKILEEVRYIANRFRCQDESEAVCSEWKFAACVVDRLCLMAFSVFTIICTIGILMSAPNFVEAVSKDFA

With `Cc1ccc(-c2ccc(O[C@H]3CN4CCC3CC4)cn2)cc1` [Compound A, (R)-3-(6-(4-methylphenyl)-pyridin-3-yloxy)-1-aza-bicyclo[2.2.2]octane] the “α7-nAChR activity Efficacy compared to epibatidine (100%)” value (human α7-nAChR; Emax relative to epibatidine response) was 75%, the EC50 (human α7-nAChR; GH3 cells, human α7-nAChR, read-out: α7-nAChR activity Potency EC50) was 0.035 µM and the EC50 [1] was over 100 µM. The IC50 [1] was 5.6 µM, the “Brain (pmoles/g ± SD)” value ([2]; 30 μmol/kg p.o., 0.25 hour) was 4631 ± 1717 pmol/g and the “Brain (pmoles/g ± SD)” value ([2]; 30 μmol/kg p.o., 0.5 hour) was 11430 ± 3441 pmol/g. For the same compound, the “Brain (pmoles/g ± SD)” value ([2]; 30 μmol/kg p.o., 1 hour) was 14948 ± 4716 pmol/g, the “Brain (pmoles/g ± SD)” value ([2]; 30 μmol/kg p.o., 4 hour) was 1272 ± 715 pmol/g and the “Brain (pmoles/g ± SD)” value ([2]; 30 μmol/kg p.o., 8 hour) was 58 ± 27 pmol/g. For the same compound, the “time for which brain concentration is beyond (or at least equal) to the EC50 at the α7-nAChR” value ([2]; acute oral dose of 30 μmol/kg) was “at least 4 hours”, the concentration at 0.25 h ([2]; male, OF1/IC, mouse, plasma, po, 30 μmol/kg p.o., 0.25 hour, read-out: Plasma (pmoles/ml ± SD)) was 573 ± 234 pmol/mL and the concentration at 0.5 h ([2]; male, OF1/IC, mouse, plasma, po, 30 μmol/kg p.o., 0.5 hour, read-out: Plasma (pmoles/ml ± SD)) was 559 ± 143 pmol/mL. It also gave a concentration at 1 h ([2]; male, OF1/IC, mouse, plasma, po, 30 μmol/kg p.o., 1 hour, read-out: Plasma (pmoles/ml ± SD)) of 322 ± 135 pmol/mL, a concentration at 4 h ([2]; male, OF1/IC, mouse, plasma, po, 30 μmol/kg p.o., 4 hour, read-out: Plasma (pmoles/ml ± SD)) of 20 ± 16 pmol/mL and a concentration at 8 h ([2]; male, OF1/IC, mouse, plasma, po, 30 μmol/kg p.o., 8 hour, read-out: Plasma (pmoles/ml ± SD)) of 3.4 ± 0.8 pmol/mL. The “Cmax/Dose (ng/mL)/(mg/kg), Mean All” value [3] was 11.3 (ng/mL)/(mg/kg), the AUC(0-t) ([3]; AUClast (h · ng/mL), Mean All) was 200 ± 62 ng·h/mL and the Cmax ([3]; Cmax (ng/mL), Mean All) was 112 ± 40 ng/mL. It also gave a Tmax [3] of 15 min, a Tmax ([3]; all rats) of 15 to 30 min and a half-life ([3]; T½ (h), Mean All) of 310 min. The “hygroscopicity (in words)” value [4] was “hygroscopic”, the moisture gain ([4]; at 93% relative humidity (RH)) was 2% and the “Hygroscopy @ 85% RH” value ([4]; comparison table, Example 7) was about 2. The Decomposition temperature [5] was 224 and the “Known Multiple forms” value [6] was “Yes”.
